Test results reported in the supplement of paper PMC9103864.

Experiments:
[1] = system: BMSC (primary human bone marrow mesenchymal stromal cells); experiment: drug sensitivity score (DSS); higher = more sensitive
[2] = system: BMSC (primary human bone marrow mesenchymal stromal cells); experiment: absolute EC50 for viability; higher = less sensitive

| Structure (SMILES) | drug sensitivity score [1] | absolute EC50 for viability [2] |
| --- | --- | --- |
| S=C(NCc1ccc2c(c1)OCO2)N1CCN(c2ncnc3c2oc2ccccc23)CC1 [Amuvatinib] | 0 | > 10 µM |
| CNc1nc(Nc2cn(C(C)(C)C#N)nc2C)ncc1C(F)(F)F [GNE-0877] | 0 | > 1 µM |
| Nc1nc(N)c2nc(-c3cccc(O)c3)c(-c3cccc(O)c3)nc2n1 [TG100-115] | 2.5 | > 10 µM |
| CCc1cnn2c(NCc3ccc[n+]([O-])c3)cc(N3CCCC[C@H]3CCO)nc12 [Dinaciclib] | 8.1 | > 1 µM |
| O=C(NOC[C@H](O)CO)c1ccc(F)c(F)c1Nc1ccc(I)cc1F [Mirdametinib] | 2.1 | > 1 µM |
| CCN1CCN(Cc2ccc(Nc3ncc(F)c(-c4cc(F)c5nc(C)n(C(C)C)c5c4)n3)nc2)CC1 [Abemaciclib] | 0 | > 2.5 µM |
| C[C@@H]1CN(CC(=O)Nc2ccc3c(c2)Cc2cccc(-c4cc(=O)cc(N5CCOCC5)o4)c2S3)C[C@H](C)O1 | 0.6 | > 25 µM |
| CCC(C)(C)C(=O)O[C@H]1C[C@@H](C)C=C2C=C[C@H](C)[C@H](CC[C@@H]3C[C@@H](O)CC(=O)O3)[C@H]21 [Simvastatin] | 2.4 | > 10 µM |
| CC(O)c1cc(C(=O)N[C@@H](C)Cn2ccc(-c3ccc(C#N)c(Cl)c3)n2)n[nH]1 (stereo partly drawn) [ODM-201] | 0 | > 2.5 µM |
| COc1cc(NS(C)(=O)=O)ccc1Nc1c2ccccc2nc2ccccc12 [Amsacrine] | 2.8 | > 10 µM |
| CC[C@@H]1C(=O)N(C)c2cnc(Nc3ccc(C(=O)NC4CCN(C)CC4)cc3OC)nc2N1C1CCCC1 [BI 2536] | 1.9 | > 1 µM |
| C[C@@H]1CCN(C(=O)CC#N)C[C@@H]1N(C)c1ncnc2[nH]ccc12 [Tofacitinib] | 0 | > 5 µM |
| Cc1c(-c2c(-c3ccc(F)o3)sc3ncnc(O[C@H](Cc4ccccc4OCc4ccnn4CC(F)(F)F)C(=O)O)c23)ccc(OCCN2CCN(C)CC2)c1Cl | 0 | > 1 µM |
| O=C(Nc1cccnc1)N1CCC(Cc2cccc(Oc3ccc(C(F)(F)F)cn3)c2)CC1 [PF-3845] | 0 | 9.93 µM |
| c1cc(CN2CCCNCCNCCCNCC2)ccc1CN1CCCNCCNCCCNCC1 [Plerixafor] | 0 | > 10 µM |
| CNC(=O)c1ccccc1Nc1cc(Nc2ccc(N3CCOCC3)cc2OC)ncc1C(F)(F)F [VS-4718] | 5.6 | > 10 µM |
| CNC(=O)c1ccc(N2C(=S)N(c3cnc(C#N)c(C(F)(F)F)c3)C(=O)C23CCC3)cc1F [Apalutamide] | 0 | > 10 µM |
| CNC(=O)c1cc(Oc2ccc(NC(=O)Nc3ccc(Cl)c(C(F)(F)F)c3)cc2)ccn1 [Sorafenib] | 0 | > 1 µM |
| COc1cc(Br)c(Nc2nc(-c3c(C)nc4ncccn34)cs2)c(Br)c1 [PTC-209] | 4 | > 10 µM |
| COc1ccc(COc2cc3oc(=O)c4cc(C(C)O)ccc4c3cc2OC)cc1 (stereo not drawn) [Palomid-529] | 0 | > 10 µM |
| CC(C)C[C@H](NC(=O)[C@H](Cc1ccccc1)NC(=O)c1cnccn1)B(O)O [Bortezomib] | 14.5 | 0.0507 µM |
| NCCNc1ccc(NCCN)c2c1C(=O)c1ccncc1C2=O [Pixantrone] | 0 | > 10 µM |
| CO[C@H]1C[C@@H]2CC[C@@H](C)[C@@](O)(O2)C(=O)C(=O)N2CCCC[C@H]2C(=O)O[C@H]([C@H](C)C[C@@H]2CC[C@@H](OC(=O)C(C)(CO)CO)[C@H](OC)C2)CC(=O)[C@H](C)/C=C(\C)[C@@H](O)[C@@H](OC)C(=O)[C@H](C)C[C@H](C)/C=C/C=C/C=C/1C [Temsirolimus] | 7.4 | > 0.1 µM |
| FC(F)(F)c1ccc(/C=C/c2nc(COc3ccc(CCCCn4ccnn4)cc3)co2)cc1 [Mubritinib] | 0.4 | > 1 µM |
| OC[C@H]1O[C@@H](n2cnc3c2N=CNC[C@H]3O)C[C@@H]1O [Pentostatin] | 0.4 | > 10 µM |
| Cc1c(C(=O)Nc2ccc(N3C[C@@H](C)O[C@@H](C)C3)nc2)cccc1-c1ccc(OC(F)(F)F)cc1 [Sonidegib] | 0 | > 10 µM |
| C[C@@H](Nc1cc(F)cc(F)c1)c1cc(C(=O)N(C)C)cc2c(=O)cc(N3CCOCC3)oc12 [AZD-8186] | 3.9 | > 1 µM |
| O=C(O)CNC(=O)c1c(O)c2ccccc2n(Cc2ccccc2)c1=O [IOX-2] | 1.9 | > 50 µM |
| Nc1nc2[nH]cnc2c(=S)[nH]1 [Thioguanine] | 9.2 | 1.18 µM |
